Source: the NIST ThermoML archive (doi:10.1016/j.jct.2011.12.037)
Numbers after ± are expanded uncertainties.

Experiments:
[1] = Molar enthalpy of transition or fusion; conditions: Crystal; DSC
[2] = for viscosity / mass density: 101.33 kPa, Liquid; for viscosity: Falling or rolling sphere viscometry; for mass density: Vibrating tube method; for Normal melting temperature: visual observation

## CCCCCCCC[n+]1cccc2ccccc21.O=S(=O)([N-]S(=O)(=O)C(F)(F)F)C(F)(F)F [1-octylquinolinium bis[(trifluoromethyl)sulfonyl]imide]
[1]
  Molar enthalpy of transition or fusion: 62.9 ± 1.7 kJ/mol
[2]; 323.15 K
  viscosity: 98.46 ± 3.5 mPa·s
  mass density: 1317.99 ± 6 kg/m3
[2]; 328.15 K
  viscosity: 77.27 ± 2.4 mPa·s
  mass density: 1313.82 ± 6 kg/m3
[2]; 333.15 K
  viscosity: 61.75 ± 1.8 mPa·s
  mass density: 1309.64 ± 5.9 kg/m3
[2]; 338.15 K
  viscosity: 50.06 ± 1.4 mPa·s
  mass density: 1305.46 ± 5.9 kg/m3
[2]; 343.15 K
  viscosity: 41.15 ± 1.2 mPa·s
  mass density: 1301.29 ± 5.8 kg/m3
[2]; 348.15 K
  viscosity: 34.22 ± 1 mPa·s
  mass density: 1297.14 ± 5.8 kg/m3
[2]; 353.15 K
  viscosity: 28.87 ± 0.85 mPa·s
  mass density: 1292.99 ± 5.8 kg/m3
[2]; 358.15 K
  viscosity: 24.7 ± 0.72 mPa·s
  mass density: 1288.85 ± 5.7 kg/m3
[2]; 363.15 K
  viscosity: 21.19 ± 0.62 mPa·s
  mass density: 1284.71 ± 5.7 kg/m3
[2]; Crystal, DTA
  Triple point temperature: 321.5 ± 0.5 K
[2]; Crystal
  Normal melting temperature: 48.2 ± 1.1 °C
[2]; Glass, DTA
  Glass transition temperature: -52.3 ± 10 °C

## c1ccccc1 [benzene]
[2]; Crystal
  Normal melting temperature: 5.5 ± 1.1 °C
